Assay results taken from patent US20260365671A1, “HETEROCYCLIC COMPOUND” (Takeda Pharmaceutical Company Limited, priority 2022, published 2026).

Experiments:
NLRP3 inflammasome = biological target: T1, NLRP3 inflammasome (Homo sapiens, UniProt Q96P20); test: IL-1β TR-FRET assay (THP-1 cells differentiated to macrophages with IFN-γ, LPS primed, ATP activated; HTRF); type: cell-based; conditions: THP-1 macrophages, 50 ng/mL LPS priming, compound 30 min, 20 mM ATP 2 hours
T1 construct: IL-1beta HTRF
T1 sequence (Q96P20 whole entry): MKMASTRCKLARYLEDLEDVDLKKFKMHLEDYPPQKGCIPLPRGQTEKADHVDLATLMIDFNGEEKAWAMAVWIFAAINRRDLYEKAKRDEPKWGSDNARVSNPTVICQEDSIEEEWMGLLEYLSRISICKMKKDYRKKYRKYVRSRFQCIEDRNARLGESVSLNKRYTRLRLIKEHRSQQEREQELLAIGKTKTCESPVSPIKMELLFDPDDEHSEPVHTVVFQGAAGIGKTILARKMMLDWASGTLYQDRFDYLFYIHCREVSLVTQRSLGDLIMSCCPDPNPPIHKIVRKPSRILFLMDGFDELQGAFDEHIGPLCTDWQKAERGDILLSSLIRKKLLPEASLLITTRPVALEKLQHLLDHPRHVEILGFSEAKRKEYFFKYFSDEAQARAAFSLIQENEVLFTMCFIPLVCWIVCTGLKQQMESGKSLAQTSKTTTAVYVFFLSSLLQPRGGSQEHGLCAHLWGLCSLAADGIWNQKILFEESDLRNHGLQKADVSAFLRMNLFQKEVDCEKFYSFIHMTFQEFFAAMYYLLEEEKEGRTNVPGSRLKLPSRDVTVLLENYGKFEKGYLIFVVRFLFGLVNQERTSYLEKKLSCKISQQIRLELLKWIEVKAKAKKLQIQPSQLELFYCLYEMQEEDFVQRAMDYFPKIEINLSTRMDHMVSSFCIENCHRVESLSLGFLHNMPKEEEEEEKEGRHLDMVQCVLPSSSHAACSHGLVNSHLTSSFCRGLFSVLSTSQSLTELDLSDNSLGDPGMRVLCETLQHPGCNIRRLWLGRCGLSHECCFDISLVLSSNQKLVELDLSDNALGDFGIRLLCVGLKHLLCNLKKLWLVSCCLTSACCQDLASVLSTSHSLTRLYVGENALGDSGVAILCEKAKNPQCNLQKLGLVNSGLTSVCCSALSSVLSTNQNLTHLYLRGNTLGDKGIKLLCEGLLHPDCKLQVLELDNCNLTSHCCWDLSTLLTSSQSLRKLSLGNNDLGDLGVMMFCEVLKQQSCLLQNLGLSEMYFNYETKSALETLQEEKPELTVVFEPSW
Experimental: (§1) The biological activity of Compound (I) with respect to NLRP3 was determined using the following in vitro methods.
IL-1β TR-FRET Assay (Reported as IC50)
Monocytic THP-1 cells (ATCC: TIB-202) were maintained in accordance with the provider's instructions in RPMI media (Life Technologies, Cat #A10491-01); RPMI was supplemented with 10% heat inactivated fetal bovine serum (Corning, Cat #35-010-CV). The cells were differentiated into macrophages by the addition of 25 ng/mL IFN-γ (PeproTech, Cat #AF300-02-100UG) for 24 hours at 37 °C/5% CO2. Media was exchanged with fresh media with no FBS, and the cells were treated with 50 ng/mL LPS (priming step) (LPS-EK: Invivogen, Cat #tlrl-peklps). The cells were plated at 240,000 cells per well in 384-well flat-bottom cell culture plates (FALCON, Cat #353962) and were incubated for 24 hours at 37 °C/5% CO2. Compounds were serially diluted (half log dilutions) with DMSO and were finally diluted with Media with no FBS. The compounds were added to the cells in 384-well plates (added in 1:3) and then the plates were incubated for 30 minutes at 37 °C/5% CO2. The NLRP3 inflammasome was activated with the addition of 20 mM ATP (Sigma Cat #A3377-25G) and the cells were incubated for 2 hours at 37 °C/5% CO2. At the end of the incubation period, 30 μL supernatant was transferred to another 384-well plate and mixed on a plate shaker for 1 minutes. The supernatant was mixed with HTRF Antibody (Human IL1 beta kit, Cisbio, 62HIL1BPEH) in assay plates (Greiner Bio-One, Cat #784075) and the assay plates were incubated in shading box at room temperature for 16-24 hours. HTRF signal was measured by EnVision (Perkinelmer) in accordance with the manufacturer's instructions.
(§2) The IC50 values were calculated from a plot of percentage of inhibition versus the inhibitor concentration by a logistics curve fit according to: Y=[Bottom+(Top−Bottom)]/(1+10^[(Log IC50−X)·Hill Slope], where Y is the % inhibition at the inhibitor concentration, X, “Bottom” is the lowest inhibition value, i.e., 0%, “Top” is the maximum inhibition value, i.e., 100%, and the “Hill Slope” describes the slope of the sigmoidal curve between the “Bottom” and “Top” values. The curve fitting was conducted with XLfit (ver. 5.5.0.5, ID Business Solutions Limited) or internally developed software.
(§3) Table 2 lists in vitro biological assay data (IL-1β and TNF-α) for the compounds shown in the examples. These assays are described in the section entitled Biological Activity, above.

NF-κB pathway = test: TNF-α assay (THP-1 cells differentiated to macrophages with IFN-γ, NF-κB pathway activated with LPS; ELISA); type: cell-based, Human; conditions: compound 30 min, 50 ng/mL LPS 3 hours
Experimental: as §1
TNF-α Assay (Reported as IC50)
Monocytic THP-1 cells (ATCC: TIB-202) were maintained in accordance with the provider's instructions in RPMI media (Life Technologies, Cat #A10491-01); RPMI was supplemented with 10% heat inactivated fetal bovine serum (Hyclone Cat #SH30396.03). The cells were differentiated into macrophages by the addition of 25 ng/mL IFN-γ for 24 hours at 37 °C/5% CO2. Media was exchanged with fresh media with no FBS. The cells were plated at 40,000 cells per well in 384-well flat-bottom cell culture plates (Costar 3764) containing compounds (added in 1:1000) in a 1:3.16 serial dilution series in DMSO and were incubated for 30 minutes at 37 °C/5% CO2. The NF-κB pathway was activated with the addition of 50 ng/mL LPS and the cells were incubated for 3 hours at 37 °C/5% CO2. At the end of the incubation period, supernatant ([…]) was removed, and […] were monitored using an ELISA (Human TNF-α ELISA, R&D systems, Cat #DY210) according to the manufacturer's instructions.
as §2, §3

[1] = Homo sapiens, THP-1, THP-1 macrophages

SMILES | IC50 (NLRP3 inflammasome) | IC50 (NF-κB pathway; [1]) | IC50 (NF-κB pathway; THP-1 macrophages)
COC(=O)N1CC[C@@H](Nc2nc3nn(-c4c(C)cc(C)cc4O)cc3s2)C1 [Example 155, methyl (3R)-3-{[2-(2-hydroxy-4,6-dimethylphenyl)-2H-pyrazolo[3,4-d][1,3]thiazol-5-yl]amino}pyrrolidine-1-carboxylate] | 340 nM | > 30000 nM | –
CN1C[C@H](F)C[C@@H](Nc2nc3nn(-c4c(O)cc(F)cc4Cl)cc3s2)C1 [Example 17, 3-chloro-5-fluoro-2-(5-{[(3R,5R)-5-fluoro-1-methylpiperidin-3-yl]amino}-2H-pyrazolo[3,4-d][1,3]thi-azol-2-yl)phenol] | 110 nM | > 30000 nM | –
CCc1cc(C)c(-n2cc3sc(N[C@@H]4C[C@@H](F)CN(C)C4)nc3n2)c(O)c1 [Example 60, 5-ethyl-2-(5-{[(3R,5R)-5-fluoro-1-methylpiperidin-3-yl]amino}-2H-pyrazolo[3,4-d][1,3]thiazol-2-yl)-3-methylphenol] | 61 nM | > 30000 nM | –
Cc1cc(C)c(-n2cc3sc(N[C@@H]4CCCN(C(=O)OCC(Cl)(Cl)Cl)C4)nc3n2)c(O)c1 [Example 27, 2,2,2-trichloroethyl (3R)-3-{[2-(2-hydroxy-4,6-dimethylphenyl)-2H-pyrazolo[3,4-d][1,3]thiazol-5-yl]amino}piperidine-1-carboxylate] | 620 nM | 6300 nM | –
Cc1cc(C)c(-n2cc3sc(NCCC(C)(C)O)nc3n2)c(O)c1 [Example 55, 2-{5-[(3-hydroxy-3-methylbutyl)amino]-2H-pyrazolo[3,4-d][1,3]thiazol-2-yl}-3,5-dimethylphenol] | 1400 nM | > 10000 nM | –
CCN1C[C@H](F)C[C@@H](Nc2nc3nn(-c4c(C)cc(C)cc4O)cc3s2)C1 [Example 7, 2-(5-{[(3R,5R)-1-ethyl-5-fluoropiperidin-3-yl]amino}-2H-pyrazolo[3,4-d][1,3]thiazol-2-yl)-3,5-dimethylphenol] | 13 nM | > 30000 nM | –
COCC(O)CNc1nc2nn(-c3c(C)cc(C)cc3O)cc2s1 (stereo not drawn) [Example 166, 2-{5-[(2-hydroxy-3-methoxypropyl)amino]-2H-pyrazolo[3,4-d][1,3]thiazol-2-yl}-3,5-dimethylphenol] | 760 nM | > 30000 nM | –
CCN1C[C@H](F)C[C@@H](Nc2nc3nn(-c4c(O)cc(F)cc4C(F)F)cc3s2)C1 [Example 24, 3-(difluoromethyl)-2-(5-{[(3R,5R)-1-ethyl-5-fluoropiperidin-3-yl]amino}-2H-pyrazolo[3,4-d][1,3]thiazol-2-yl)-5-fluorophenol] | 16 nM | > 10000 nM | –
Cc1cc(O)c(-n2cc3sc(N[C@@H]4C[C@@H](F)CN(C)C4)nc3n2)c(C2CC2(F)F)c1 (single isomer, unassigned) [Example 127, 3-[(R)-2,2-difluorocyclopropyl]-2-(5-{[(3R,5R)-5-fluoro-1-methylpiperidin-3-yl]amino}-2H-pyrazolo[3,4-d][1,3]thiazol-2-yl)-5-methylphenol or 3-[(S)-2,2-difluorocyclopropyl]-2-(5-{[(3R,5R)-5-fluoro-1-methylpiperidin-3-yl]amino}-2H-pyrazolo[3,4-d][1,3]thiazol-2-yl)-5-methylphenol (tR1)] | 15 nM | – | > 30000 nM
Cc1cc(O)c(-n2cc3sc(NC[C@@H](C)O)nc3n2)c(C(C)C)c1 [Example 93, 2-(5-{[(2R)-2-hydroxypropyl]amino}-2H-pyrazolo[3,4-d][1,3]thiazol-2-yl)5-methyl-3-(propan-2-yl)phenol] | 280 nM | > 30000 nM | –
Cc1cc(C)c(-n2cc3sc(NC4CCN(S(=O)(=O)C5CC5)C4)nc3n2)c(O)c1 (stereo not drawn) [Example 101, 2-(5-{[1-(cyclopropanesulfonyl)pyrrolidin-3-yl]amino}-2H-pyrazolo[3,4-d][1,3]thiazol-2-yl)-3,5-dimethylphenol] | 420 nM | > 30000 nM | –
Cc1cnc(-n2cc3sc(N[C@@H]4CCCN(C)C4)nc3n2)c(O)c1 [Example 63, 5-methyl-2-(5-{[(3R)-1-methylpiperidin-3-yl]amino}-2H-pyrazolo[3,4-d][1,3]thiazol-2-yl)pyridin-3-ol] | 3400 nM | > 10000 nM | –
CNC(=O)N1CCC(Nc2nc3nn(-c4c(C)cc(C)cc4O)cc3s2)C1 (stereo not drawn) [Example 86, 3-{[2-(2-hydroxy-4,6-dimethylphenyl)-2H-pyrazolo[3,4-d][1,3]thiazol-5-yl]amino}-N-methylpyrrolidine-1-carboxamide] | 300 nM | > 30000 nM | –
Cc1cc(C)c(-n2cc3sc(N[C@@H]4C[C@@H](F)CN(C5CCOC5)C4)nc3n2)c(O)c1 (single isomer, unassigned) [Example 73, 2-[5-({(3R,5R)-5-fluoro-1-[(S)-oxolan-3-yl]piperidin-3-yl}amino)-2H-pyrazolo[3,4-d][1,3]thiazol-2-yl]-3,5-dimethylphenol or 2-[5-({(3R,5R)-5-fluoro-1-[(R)-oxolan-3-yl]piperidin-3-yl}amino)-2H-pyrazolo[3,4-d][1,3]thiazol-2-yl]-3,5-dimethylphenol (tR1)] | 860 nM | > 30000 nM | –

Further lines, results first:

IC50 (NLRP3 inflammasome) | IC50 (NF-κB pathway; [1]) | IC50 (NF-κB pathway; THP-1 macrophages) | SMILES
1500 nM | > 10000 nM | – | Cc1cc(C)c(-n2cc3sc(N[C@@H]4C[C@@H](C(F)F)CN(C)C4)nc3n2)c(O)c1 [Example 41, 2-(5-{[(3R,5R)-5-(difluoromethyl)-1-methylpiperidin-3-yl]amino}-2H-pyrazolo[3,4-d][1,3]thiazol-2-yl)-3,5-dimethylphenol]
450 nM | > 30000 nM | – | Cc1cc(C)c(-n2cc3sc(N[C@@H]4CCCC[C@H]4O)nc3n2)c(O)c1 [Example 162, 2-(5-{[(1R,2R)-2-hydroxycyclohexyl]amino}-2H-pyrazolo[3,4-d][1,3]thiazol-2-yl)-3,5-dimethyl-phenol]
580 nM | > 30000 nM | – | Cc1cc(C)c(-n2cc3sc(N[C@H]4COC[C@H]4F)nc3n2)c(O)c1 (racemic) [Example 122, racemic mixture of 2-(5-{[(3R,4R)-4-fluorooxolan-3-yl]amino}-2H-pyrazolo[3,4-d][1,3]thiazol-2-yl)-3,5-dimethylphenol and 2-(5-{[(3S,4S)-4-fluorooxolan-3-yl]amino}-2H-pyrazolo[3,4-d][1,3]thiazol-2-yl)-3,5-dimethylphenol]
2300 nM | > 10000 nM | – | Cc1cc(C)c(-n2cc3sc(NC4CCN(CC(F)F)CC4)nc3n2)c(O)c1 [Example 129, 2-(5-{[1-(2,2-difluoroethyl)piperidin-4-yl]amino}-2H-pyrazolo[3,4-d][1,3]thiazol-2-yl)-3,5-dimethylphenol]
3500 nM | > 10000 nM | – | Cc1cc(C)c(-n2cc3sc(NC45CC(OC(F)F)(C4)C5)nc3n2)c(O)c1 [Example 173, 2-(5-{[3-(difluoromethoxy)bicyclo[1.1.1]pentan-1-yl]amino}-2H-pyrazolo[3,4-d][1,3]thiazol-2-yl)-3,5-dimethylphenol]
430 nM | > 30000 nM | – | Cc1cc(C)c(-n2cc3sc(NC45CC(O)(C4)C5)nc3n2)c(O)c1 [Example 169, 3-{[2-(2-hydroxy-4,6-dimethylphenyl)-2H-pyrazolo[3,4-d][1,3]thiazol-5-yl]amino} bicyclo[1.1.1]pentan-1-ol]
3100 nM | > 30000 nM | – | Cc1cc(C)c(-n2cc3sc(NC4CCN(C)CC4)nc3n2)c(O)c1 [Example 81, 3,5-dimethyl-2-{5-[(1-methylpiperidin-4-yl)amino]-2H-pyrazolo[3,4-d][1,3]thiazol-2-yl}phenol]
